Reference: patent US20210023074A1, “TREATMENT OF DEMYELINATING DISEASES” (Victoria Link Ltd., priority 2018, published 2021)

Tested on: myelin in spinal cord of EAE mice
Assay: TEM of spinal cord sections from EAE mice (myelination)
Type: in vivo, C57BL/6 mice
Settings: 0.03 mg/kg i.p. daily from day 17, day 45
Procedure: Experimental detail: EAE was induced in female C57BL/6 mice as described in Example 1. On day 17, mice were started on daily treatment with vehicle only or nalmefene at 0.03 mg/kg by i.p. injection. On day 45 after immunization to induce EAE, mice were culled and spinal cords were processed for transmission electron microscopy (TEM).

C=C1CC[C@@]2(O)[C@H]3Cc4ccc(O)c5c4[C@@]2(CCN3CC2CC2)[C@H]1O5 [nalmefene, (4R,4aS,7aS,12bS)-3-(cyclopropylmethyl)-7-methylidene-2,4,5,6,7a,13-hexahydro-1H-4,12-methanobenzofuro[3,2-e]isoquinoline-4a,9-diol]
myelination of nerve axons in spinal cord (TEM): nerve axons appear healthy and well myelinated
